Results as given in article PMC3117970 (ACS chemical biology, 2011).
Like-named read-outs stand apart in the source and are kept apart here.

Key:
human RAD51 = biological target: T1, human RAD51 (Homo sapiens, UniProt Q06609); assay: D-loop assay for RAD51; format: biochemical; settings: B02 derivatives 50 μM
T1 sequence (Q06609 2-339 limits assumed): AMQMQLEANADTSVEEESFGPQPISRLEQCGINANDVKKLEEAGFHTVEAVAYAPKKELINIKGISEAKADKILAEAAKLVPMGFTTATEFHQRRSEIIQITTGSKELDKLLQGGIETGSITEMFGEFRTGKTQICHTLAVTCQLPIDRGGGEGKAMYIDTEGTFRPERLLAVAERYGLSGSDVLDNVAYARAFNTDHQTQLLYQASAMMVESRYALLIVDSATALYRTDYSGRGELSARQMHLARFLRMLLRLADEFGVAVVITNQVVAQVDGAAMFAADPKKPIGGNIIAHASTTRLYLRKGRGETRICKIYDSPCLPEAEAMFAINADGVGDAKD

RecA = RecA (Escherichia coli, UniProt P0A7G6)
Sequence of RecA (P0A7G6 2-353): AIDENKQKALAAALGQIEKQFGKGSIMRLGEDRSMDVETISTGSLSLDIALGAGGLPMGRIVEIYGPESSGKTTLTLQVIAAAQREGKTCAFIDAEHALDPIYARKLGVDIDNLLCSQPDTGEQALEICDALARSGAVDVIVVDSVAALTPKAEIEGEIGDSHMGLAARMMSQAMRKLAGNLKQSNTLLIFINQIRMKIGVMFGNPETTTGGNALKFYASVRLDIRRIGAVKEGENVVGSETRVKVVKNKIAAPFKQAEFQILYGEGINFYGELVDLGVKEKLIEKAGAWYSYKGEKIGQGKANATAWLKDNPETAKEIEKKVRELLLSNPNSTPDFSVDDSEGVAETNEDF

human RAD54 = biological target: T2, human RAD54 (Homo sapiens, UniProt Q92698); assay: DNA branch migration assay for RAD54; format: biochemical; settings: concentrations from 0 to 200 μM
T2 sequence (Q92698 1-747): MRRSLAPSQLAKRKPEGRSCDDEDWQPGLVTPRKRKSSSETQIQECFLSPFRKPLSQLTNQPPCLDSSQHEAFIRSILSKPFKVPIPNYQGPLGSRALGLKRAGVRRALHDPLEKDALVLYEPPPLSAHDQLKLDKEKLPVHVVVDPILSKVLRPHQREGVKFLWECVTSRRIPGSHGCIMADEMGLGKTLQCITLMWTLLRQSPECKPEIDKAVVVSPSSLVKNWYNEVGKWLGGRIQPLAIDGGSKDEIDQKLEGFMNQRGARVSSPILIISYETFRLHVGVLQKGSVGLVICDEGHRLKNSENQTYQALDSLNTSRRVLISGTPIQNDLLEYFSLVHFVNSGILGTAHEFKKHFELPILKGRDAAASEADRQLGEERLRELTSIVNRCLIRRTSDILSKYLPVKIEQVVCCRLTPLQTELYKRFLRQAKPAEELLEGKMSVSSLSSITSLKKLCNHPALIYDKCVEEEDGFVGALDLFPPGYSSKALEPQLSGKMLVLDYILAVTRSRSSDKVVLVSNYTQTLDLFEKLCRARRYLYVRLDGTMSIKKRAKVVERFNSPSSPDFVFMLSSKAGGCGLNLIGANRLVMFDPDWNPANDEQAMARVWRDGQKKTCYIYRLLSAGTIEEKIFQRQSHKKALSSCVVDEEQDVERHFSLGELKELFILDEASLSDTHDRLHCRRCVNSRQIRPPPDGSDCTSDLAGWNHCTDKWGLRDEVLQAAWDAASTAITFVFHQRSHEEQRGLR

Cn1c(C=Cc2cccnc2)nc2ccccc2c1=O [B02-3e]
inhibitory effect on DNA strand exchange activity of RAD51 (D-loop assay) (human RAD51): eliminates the inhibition

O=c1c2ccccc2nc(C=Cc2cccnc2)n1-c1ccccc1 [B02-3d]
inhibitory effect on DNA strand exchange activity of RAD51 (D-loop assay) (human RAD51): eliminates the inhibition

Cc1ccc(-n2c(C=Cc3cccnc3)nc3ccccc3c2=O)cc1 [B02-3c]
inhibitory effect on DNA strand exchange activity of RAD51 (D-loop assay) (human RAD51): eliminates the inhibition

Cc1cccc(-n2c(/C=C/c3cccnc3)nc3ccccc3c2=O)c1 [B02-3b]
inhibition of RecA DNA strand exchange (RecA; concentrations up to 100 μM): do not inhibit
inhibitory effect on DNA strand exchange activity of RAD51 (D-loop assay) (human RAD51): retain the inhibitory effect

CCn1c(C=Cc2cccnc2)nc2ccccc2c1=O [B02-3a]
inhibition of RecA DNA strand exchange (RecA; concentrations up to 100 μM): do not inhibit
inhibitory effect on DNA strand exchange activity of RAD51 (D-loop assay) (human RAD51): retain the inhibitory effect

O=c1c2ccccc2nc(/C=C/c2cccnc2)n1Cc1ccccc1 [B02]
inhibition of RAD54 branch migration activity (human RAD54): did not significantly inhibit
IC50 (RecA; read-out: IC50 for RecA, D-loop assay, RecA 1 μM): > 250 µM
inhibition of RecA DNA strand exchange (RecA; up to 250 μM of compound): did not observe any significant inhibition
